Experiments:
rabbit = settings: Prenatal developmental toxicity study, dutch, Oral, Gavage/Intubation, dose end: 18 GD
mouse [1] = settings: Carcinogenicity; Oral; Feed; dose end: 24 month; group: systemic; systemic / pathology microscopic / skin / fibrosarcoma + systemic / clinical chemistry / aminopyrine-n-demethylase / aminopyrine-n-…
rat [2] = settings: Combined chronic toxicity/carcinogenicity; fischer; Oral; Feed; dose end: 24 month; group: systemic; systemic / clinical chemistry / alanine aminotransferase (alt/sgpt) / alanine aminotransferase (alt/sgpt) + systemic / in life observation…
mouse [3] = settings: Carcinogenicity, cd1, Oral, Feed, dose end: 78 week, group: systemic
rat [4] = settings: Combined chronic toxicity/carcinogenicity, sprague dawley, Oral, Feed, dose end: 24 month, group: systemic
dog [5] = settings: Chronic toxicity, beagle, Oral, Capsule, dose end: 104 week, group: systemic
dog [6] = settings: Subchronic oral toxicity in nonrodent, beagle, Capsule, dose end: 98 day, group: systemic
rat [7] = settings: Subchronic oral toxicity in rodents, sprague dawley, Feed, dose end: 13 week, group: systemic
dog [8] = settings: Subchronic oral toxicity in nonrodent, beagle, Gavage/Intubation, dose end: 18 week, group: systemic, systemic / in life observation / body weight / body weight + systemic / in life observation / clinical signs / ataxia + systemic / in life …
rat [9] = settings: Developmental neurotoxicity study; sprague dawley; Oral; Gavage/Intubation; dose end: 63 PND; group: cannot be grouped; systemic / in life observation / body weight / offspring (pup) weight
rat [10] = settings: Developmental neurotoxicity range-finding study; sprague dawley; Oral; Feed; group: cannot be grouped; developmental / offspring survival late / [other] / [other] + systemic / in life observation / body weight / litter weight
dog [11] = settings: Chronic toxicity, beagle, Oral, Feed, dose end: 53 week, group: systemic
[12] = group: developmental, developmental / developmental malformation / bone / [other] + developmental / developmental malformation / bone / full supernumerary + …
[13] = group: maternal, reproductive / reproductive performance / aborted / aborted + reproductive / reproductive performance / resorptions / resorptions + systemic…
[14] = systemic / in life observation / body weight / body weight + systemic / organ weight / liver / relative to body weight + systemic / clinical…
[15] = systemic / in life observation / clinical signs / emesis + systemic / in life observation / clinical signs / salivation + systemic / in life…
[16] = systemic / in life observation / clinical signs / soft stools + systemic / in life observation / clinical signs / emesis
[17] = systemic / pathology gross / liver / enlarged + systemic / pathology microscopic / liver / glycogen deposition
[18] = systemic / pathology gross / liver / enlarged + systemic / pathology microscopic / liver / glycogen deposition + systemic / clinical …
[19] = systemic / clinical chemistry / aspartate aminotransferase (ast/sgot) / aspartate aminotransferase (ast/sgot)
[20] = systemic / in life observation / clinical signs / pupillary function (dilation or constriction)
[21] = systemic / in life observation / clinical signs / pupillary function (dilation or constriction) + systemic / clinical chemistry / protein / …

## Cn1cc(-c2ccccc2)c(=O)c(-c2cccc(C(F)(F)F)c2)c1 [Fluridone]
rabbit; [12]
  LEL: 750 mg/kg/day
  LOAEL: > 750 mg/kg/day
  NEL: 300 mg/kg/day
  NOAEL: ≥ 750 mg/kg/day
rabbit; [13]
  LEL: 300 mg/kg/day
  LOAEL: 300 mg/kg/day
  NEL: 125 mg/kg/day
  NOAEL: 125 mg/kg/day
Mouse [1]
  LEL: 50 mg/kg/day
  LOAEL: > 50 mg/kg/day
  NEL: 15 mg/kg/day
  NOAEL: ≥ 50 mg/kg/day
Rat [2]
  LEL: 25.1 mg/kg/day
  LOAEL: > 80.8 mg/kg/day
  NEL: 7.65 mg/kg/day
  NOAEL: ≥ 80.8 mg/kg/day

## CC(C)Oc1cccc(NC(=O)c2ccccc2C(F)(F)F)c1 [Flutolanil]
Mouse [3]; systemic / in life observation / body weight / body weight gain
  LOAEL: 839 mg/kg/day
Mouse [3]; systemic / in life observation / body weight / body weight gain + systemic / organ weight / liver / absolute + systemic / organ weight / …
  NOAEL: 168 mg/kg/day
Mouse [3]; systemic / pathology microscopic / liver / vacuolization
  LEL: 162 mg/kg/day
Mouse [3]; systemic / pathology microscopic / liver / vacuolization + systemic / in life observation / body weight / body weight gain
  NEL: 32 mg/kg/day
Rat [4]; systemic / in life observation / body weight / body weight + systemic / organ weight / liver / relative to body weight
  LOAEL: 460 mg/kg/day
Rat [4]; [14]
  LEL: 460 mg/kg/day
  NOAEL: 86.9 mg/kg/day
Rat [4]; systemic / organ weight / liver / relative to body weight
  NEL: 86.9 mg/kg/day
Dog [5]; [15]
  LOAEL: 250 mg/kg/day
  NOAEL: 50 mg/kg/day
Dog [5]; [16]
  LEL: 50 mg/kg/day
  NEL: < 50 mg/kg/day
Dog [6]; [17]
  LEL: 400 mg/kg/day
  LOAEL: 400 mg/kg/day
Dog [6]; [18]
  NEL: 80 mg/kg/day
  NOAEL: 80 mg/kg/day
Rat [7]; [19]
  LEL: 37 mg/kg/day
  NEL: < 37 mg/kg/day
Rat [7]; systemic / organ weight / liver / absolute + systemic / organ weight / liver / relative to body weight
  LOAEL: 339 mg/kg/day
Rat [7]; systemic / organ weight / liver / absolute + systemic / organ weight / liver / relative to body weight + systemic / clinical chemistry / …
  NOAEL: 44 mg/kg/day

## CC[C@H](C)[C@H]1O[C@]2(C=C[C@@H]1C)C[C@@H]1C[C@@H](C/C=C(\C)[C@@H](O[C@H]3C[C@H](OC)[C@@H](O[C@H]4C[C@H](OC)[C@@H](O)[C@H](C)O4)[C@H](C)O3)[C@@H](C)/C=C/C=C3\CO[C@@H]4[C@H](O)C(C)=C[C@@H](C(=O)O1)[C@]34O)O2.CO[C@H]1C[C@H](O[C@H]2[C@H](C)O[C@@H](O[C@@H]3/C(C)=C/C[C@@H]4C[C@@H](C[C@]5(C=C[C@H](C)[C@@H](C(C)C)O5)O4)OC(=O)[C@@H]4C=C(C)[C@@H](O)[C@H]5OC/C(=C\C=C\[C@@H]3C)[C@]54O)C[C@@H]2OC)O[C@@H](C)[C@@H]1O [Abamectin]
Dog [8]
  LEL: 0.5 mg/kg/day
  LOAEL: 0.5 mg/kg/day
  NEL: 0.25 mg/kg/day
  NOAEL: 0.25 mg/kg/day
Rat [9]
  LEL: 0.4 mg/kg/day
  LOAEL: 0.4 mg/kg/day
  NEL: 0.2 mg/kg/day
  NOAEL: 0.2 mg/kg/day
Rat [10]
  LEL: 0.876 mg/kg/day
  LOAEL: 0.876 mg/kg/day
  NEL: 0.604 mg/kg/day
  NOAEL: 0.604 mg/kg/day
Dog [11]; [20]
  LEL: 0.5 mg/kg/day
  LOAEL: 0.5 mg/kg/day
Dog [11]; [21]
  NEL: 0.25 mg/kg/day
  NOAEL: 0.25 mg/kg/day

From EPA's ToxRefDB 2
